The term pKi denotes −log10 of the Ki, conventionally taken in molar units.

pKi: −log10 of the molar value.

The assay deals with T1, human GnRH receptor (Homo sapiens, UniProt P30968).
T1 construct: expressed in transfected cells; membrane preparations
T1 sequence (P30968 1-328): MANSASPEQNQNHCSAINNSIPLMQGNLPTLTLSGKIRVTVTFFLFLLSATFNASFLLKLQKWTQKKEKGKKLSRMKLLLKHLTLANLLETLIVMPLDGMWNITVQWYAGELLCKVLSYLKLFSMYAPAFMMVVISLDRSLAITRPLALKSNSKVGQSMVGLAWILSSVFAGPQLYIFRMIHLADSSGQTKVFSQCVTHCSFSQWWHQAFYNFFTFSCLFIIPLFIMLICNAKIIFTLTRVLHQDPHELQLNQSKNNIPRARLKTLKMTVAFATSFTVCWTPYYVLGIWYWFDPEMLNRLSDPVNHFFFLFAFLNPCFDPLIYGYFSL
Briefly: peptide competitive human receptor binding assays (radioligand displacement). The note with it: tested in one or more of the peptide competitive human receptor binding assays. The protocol:
HEK293 cells stably transfected with the human GnRH receptor are grown for two days after achieving confluence then are harvested by striking tissue culture flasks against a firm surface. Cells are collected by centrifugation at 1000 g for […]. Cell pellets are resuspended in 5% sucrose and homogenized using a polytron homogenizer for two 15 second homogenization steps. Cell homogenates are then centrifuged for 5 minutes at 3000 g to remove nuclei and the supernatant subsequently centrifuged for 30 minutes at 44,000 g to collect the membrane fraction. The membrane pellet is resuspended in GnRH binding buffer (10 mM HEPES, pH 7.5, 150 mM NaCl and 0.1% BSA) and aliquots immediately snap-frozen in liquid nitrogen and stored at −80° C. Protein content of the membrane suspension is determined using the Bio-Rad protein assay kit (Bio-Rad).
RBL cells stably transfected with the human GnRH receptor are grown to 80% confluency prior to harvesting. The cells are incubated at 37° C. for 10 min in 0.5 mM EDTA/PBS (Ca^++, Mg^++ free), and are dislodged from the plate by gentle rapping of the flasks. Cells are collected and pelleted by centrifugation at 1000 g for 5 minutes. Cell pellets are resuspended in buffer (DPBS supplemented with 10 mM MgCl2, 2 mM EGTA, pH=7.4), and cell lysis is performed using a pressure cell and applying N2 at a pressure of 900 psi for 30 min at 4° C. Unbroken cells and larger debris were removed by centrifugation at 1200 g for 10 min at 4° C. The cell membrane supernatant is then centrifuged at 45,000 g and the resulting membrane pellet is resuspended in assay buffer and homogenized on ice using a tissue homogenizer. Protein concentrations are determined using the Coomassie Plus Protein Reagent kit. Membranes are aliquoted and stored at −80° C. until ready for use.
Radioligand binding displacement assays using the peptide radioligands are performed in buffer containing 10 mM HEPES, 150 mM NaCl and 0.1% BSA, pH=7.5. Radioligand binding assays employing the use of [^3H]-1-(2,6-difluorobenzyl)-3-[(2R)-amino-2-phenethyl]-5-(2-fluoro-3-methoxyphenyl)-6-methyluracil (here the 3-methoxy group is tritiated) are run in buffer containing 50 mM Tris, 150 mM NaCl, 5 mM MgCl2, 0.01% saponin and 0.5 mM EDTA, pH=7.5. Radioligand displacement assays are performed by incubating radioligand ([^125I-Tyr^5, DLeu^6, NMeLeu^7, Pro^9-NEt]GnRH (0.1 nM), [His^5, ^125I-DTyr^6]GnRH (0.2 nM) (31) or [^3H]-1-(2,6-difluorobenzyl)-3-[(2R)-amino-2-phenethyl]-5-(2-fluoro-3-methoxyphenyl)-6-methyluracil (1 nM)), unlabeled competitors at concentrations ranging from 0.3 pM to 10 μM, and membranes for 2 hrs at rt. 10 to 20 μg protein/well is used from membrane preparations for human, monkey and rabbit GnRH receptor. 5 μg/well and 60 μg/well of membranes are used for rat and dog GnRH receptors, respectively. Binding assays are performed in either Millipore 96-well GF/C filtration plates (for ([^125I-Tyr^5, DLeu^6, NMeLeu^7, Pro^9-NEt]GnRH assays), or in 96 well low binding plates, which are subsequently filtered onto GF/C Unifilters. Filters are pretreated with 0.5% PEI for 30 min prior to use. Reactions are terminated by rapid vacuum filtration, and the filters are washed twice with 250 μL ice cold PBS pH=7.4 (0.01% Tween-20 is included in wash media for [His^5, ^125I-DTyr^6]GnRH and [^3H]-1-(2,6-difluorobenzyl)-3-[(2R)-amino-2-phenethyl]-5-(2-fluoro-3-methoxyphenyl)-6-methyluracil radioligands). The filters are dried, and the Millipore filters are monitored for radioactivity using a Cobra II gamma counter (Perkin Elmer Life Sciences). For assays filtered onto the GF/C Unifilter plates, 50 μL scintillation fluid is added to each filter, and radioactivity is monitored using a TopCount NXT. For iodinated radioligands, total radioligand is monitored on a gamma counter, and for the tritiated radioligand, total radioligand is monitored using a Perkin Elmer 1600TR liquid scintillation counter. […]
Compound `CC(C)(C)OC(=O)CCCOc1cc(Cl)c(-c2cnc(C(F)(F)F)cc2C#N)cc1S(=O)(=O)N1CCCCc2ccccc21` [Example 6-1, 4-[5-chloro-4-(4-cyano-6-trifluoromethyl-pyridin-3-yl)-2-(2,3,4,5-tetrahydro-benzo[b]azepine-1-sulfonyl)-phenoxy]-butyric acid tert-butyl ester] had a negative-log Ki (pKi) of at least 7.00. Then `CC(C)(C)OC(=O)COc1cc(Cl)c(-c2cnc(C(F)(F)F)cc2C#N)cc1S(=O)(=O)N1CCCCc2ccccc21` [Example 6-5], with at least 7.00; and `N#Cc1cc(C(F)(F)F)ncc1-c1cc(S(=O)(=O)N2CCCCc3ccccc32)c(OCCCC(=O)O)cc1Cl` [Example 7-1, 4-[5-chloro-4-(4-cyano-6-trifluoromethyl-pyridin-3-yl)-2-(2,3,4,5-tetrahydro-benzo[b]azepine-1-sulfonyl)-phenoxy]-butyric acid], with at least 7.00; and `Cc1cc(C(F)(F)F)ncc1-c1cc(S(=O)(=O)N2CCCCc3ccccc32)c(OCCCC(=O)O)cc1Cl` [Example 7-2], with at least 7.00.

Consider `Cc1cc(C#N)ncc1-c1cc(S(=O)(=O)N2CCCCc3ccccc32)c(OCCCC(=O)O)cc1Cl` [Example 7-3], for which the pKi was at least 7.00.

Compound `N#Cc1cc2ccccc2nc1-c1cc(S(=O)(=O)N2CCCCc3ccccc32)c(OCCCC(=O)O)cc1Cl` [Example 7-4] showed a pKi of at least 7.00. With `N#Cc1cc(C(F)(F)F)ncc1-c1cc(S(=O)(=O)N2CCCCc3ccccc32)c(OCC(=O)O)cc1Cl` [Example 7-5], the pKi is at least 7.00. In the case of `N#Cc1cc(C(F)(F)F)ncc1-c1cc(S(=O)(=O)N2CCCCc3ccccc32)c(O)cc1Cl` [Example 8-2], the pKi is at least 7.00. Then `N#Cc1cc2ccccc2nc1-c1cc(S(=O)(=O)N2CCCCc3ccccc32)c(O)cc1Cl` [Example 8-3], with at least 7.00. Then `Cc1cc(C#N)ncc1-c1cc(S(=O)(=O)N2CCCCc3ccccc32)c(OCCCO)cc1Cl` [Example 9-1, 5-[2-chloro-4-(3-hydroxy-propoxy)-5-(2,3,4,5-tetrahydro-benzo[b]azepine-1-sulfonyl)-phenyl]-4-methyl-pyridine-2-carbonitrile], with at least 7.00; and `N#Cc1cc(C(F)(F)F)ncc1-c1cc(S(=O)(=O)N2CCCCc3ccccc32)c(OCCCO)cc1Cl` [Example 9-2, 5-[2-Chloro-4-(3-hydroxy-propoxy)-5-(2,3,4,5-tetrahydro-benzo[b]azepine-1-sulfonyl)-phenyl]-2-trifluoromethyl-isonicotinonitrile], with at least 7.00; and `Cc1cc(C#N)ncc1-c1cc(S(=O)(=O)N2CCCCc3ccccc32)c(OCCC(=O)O)cc1Cl` [Example 10-1, 3-[5-chloro-4-(6-cyano-4-methyl-pyridin-3-yl)-2-(2,3,4,5-tetrahydro-benzo[b]azepine-1-sulfonyl)-phenoxy]-propionic acid], with at least 7.00.

Turning to `N#Cc1cc(C(F)(F)F)ncc1-c1cc(S(=O)(=O)N2CCCCc3ccccc32)c(OCCC(=O)O)cc1Cl` [Example 10-2, 3-[5-chloro-4-(4-cyano-6-trifluoromethyl-pyridin-3-yl)-2-(2,3,4,5-tetrahydro-benzo[b]azepine-1-sulfonyl)-phenoxy]-propionic acid], the pKi is at least 7.00. Take `CC1(C)CCN(S(=O)(=O)c2cc(-c3cnc(C(F)(F)F)cc3C#N)c(Cl)cc2OCCCCO)c2ccccc21` [Example 11-1, 5-[2-chloro-5-(4,4-dimethyl-3,4-dihydro-2H-quinoline-1-sulfonyl)-4-(4-hydroxy-butoxy)-phenyl]-2-trifluoromethyl-isonicotinonitrile]: the negative logarithm of the Ki (pKi) is at least 7.00. Compound `CC1(C)CCN(S(=O)(=O)c2cc(-c3cnc(C(F)(F)F)cc3C#N)c(Cl)cc2OCCO)c2ccccc21` [Example 11-2, 5-[2-chloro-5-(4,4-dimethyl-3,4-dihydro-2H-quinoline-1-sulfonyl)-4-(2-hydroxy-ethoxy)-phenyl]-2-trifluoromethyl-isonicotinonitrile] gave a pKi of at least 7.00. Then `CC1(C)CCN(S(=O)(=O)c2cc(-c3cnc(C(F)(F)F)cc3C#N)c(Cl)cc2OCCCO)c2ccccc21` [Example 11-3, 5-[2-chloro-5-(4,4-dimethyl-3,4-dihydro-2H-quinoline-1-sulfonyl)-4-(3-hydroxy-propoxy)-phenyl]-2-trifluoromethyl-isonicotinonitrile], with at least 7.00; and `CC1(C)CCN(S(=O)(=O)c2cc(-c3cnc(C(F)(F)F)cc3C#N)c(Cl)cc2OCCCC(=O)O)c2ccccc21` [Example 12-1, 4-[5-chloro-4-(4-cyano-6-trifluoromethyl-pyridin-3-yl)-2-(4,4-dimethyl-3,4-dihydro-2H-quinoline-1-sulfonyl)-phenoxy]-butyric acid], with at least 7.00; and `CC1(C)CCN(S(=O)(=O)c2cc(-c3cnc(C(F)(F)F)cc3C#N)c(Cl)cc2OCC(=O)O)c2ccccc21` [Example 12-2, [5-chloro-4-(4-cyano-6-trifluoromethyl-pyridin-3-yl)-2-(4,4-dimethyl-3,4-dihydro-2H-quinoline-1-sulfonyl)-phenoxy]-acetic acid], with at least 7.00. Then `CC1(C)CCN(S(=O)(=O)c2cc(-c3cnc(C(F)(F)F)cc3C#N)c(Cl)cc2OCCC(=O)O)c2ccccc21` [Example 12-3, 3-[5-chloro-4-(4-cyano-6-trifluoromethyl-pyridin-3-yl)-2-(4,4-dimethyl-3,4-dihydro-2H-quinoline-1-sulfonyl)-phenoxy]-propionic acid], with at least 7.00. Then `Cc1cc(C(F)(F)F)nc(=O)n1-c1cc(S(=O)(=O)N2CCCCc3ccccc32)ccc1Cl` [Example 13-1, 1-[2-chloro-5-(2,3,4,5-tetrahydro-benzo[b]azepine-1-sulfonyl)-phenyl]-6-methyl-4-trifluoromethyl-1H-pyrimidin-2-one], with at least 7.00. The compound `COc1cc(Cl)c(-c2cnc(C(F)(F)F)cc2C#N)cc1S(=O)(=O)N(C)c1ccccc1` [Example 15-1, 4-chloro-5-(4-cyano-6-trifluoromethyl-pyridin-3-yl)-2-methoxy-N-methyl-N-phenyl-benzenesulfonamide] gave a pKi of at least 7.00.

The compound `COc1cc(Cl)c(-c2cnc(C(F)(F)F)cc2C#N)cc1S(=O)(=O)N1CCC(C)(C)c2ccccc21` [Example 15-2] gave a pKi of at least 7.00.

Compound `COc1cc(Cl)c(-c2cnc(C(F)(F)F)cc2C#N)cc1S(=O)(=O)N(C)c1cccc(Cl)c1` [Example 15-3] gave a pKi of at least 7.00. Then `COc1cc(Cl)c(-c2cnc(C(F)(F)F)cc2C#N)cc1S(=O)(=O)N(C)c1ccccc1C` [Example 15-5], with at least 7.00. Then `COc1cc(Cl)c(-c2cnc(C(F)(F)F)cc2C#N)cc1S(=O)(=O)N(C)c1ccc(F)cc1` [Example 15-6], with at least 7.00. Regarding `COc1cc(Cl)c(-c2cnc(C(F)(F)F)cc2C#N)cc1S(=O)(=O)N(C)c1ccc(Cl)c(Cl)c1` [Example 15-8], the pKi was at least 7.00. In turn, `COc1cc(Cl)c(-c2cnc(C(F)(F)F)cc2C#N)cc1S(=O)(=O)N(C)c1cccc(C)c1` [Example 15-9] showed a pKi of at least 7.00.
